XC50 data for 87 compounds are collected here from ChEMBL document CHEMBL1157539, “Thousands of chemical starting points for antimalarial lead identification” (Nature, 2010).

The subject of the assay is Plasmodium falciparum. Description: GSK_TCMDC: Inhibition of Plasmodium falciparum 3D7 in whole erythrocytes, using parasite LDH activity as an index of growth. Conditions: Plasmodium falciparum, 3D7. In kind it is functional, organism-based.
The compound `CN(C)c1nc(NCc2ccccc2)nc(N/N=C/c2cc([N+](=O)[O-])ccc2O)n1` showed an XC50 of 685 nM.
Then `O=C(NC1CCN(Cc2ccccc2)CC1)c1ccc2c(=O)n(Cc3ccc(Cl)cc3)c(=S)[nH]c2c1`, with 998 nM; and `Oc1nc(Cc2ccccc2)nc2ccc(Cl)cc12`, with 879 nM; and `CC1CCC2(CC1)N=C(N)N=C(N)N2OCc1ccc(Br)c2ccccc12` (configuration not stated), with 216 nM.
Under `CNC(=O)C1Cc2c([nH]c3cc(Br)ccc23)C2(CCN(CCc3ccccc3)CC2)N1` (configuration not stated) stands 721 nM.
Under `COc1c(CNCCCCCCNCc2c(OC)c(OC)c3ccccc3c2OC)c(OC)c2ccccc2c1OC` stands 956 nM.
Compound `O=C(NCc1ccc(F)cc1)Nc1ccc(-c2cccc(-c3nc4cc(C(F)(F)F)ccc4[nH]3)c2)cc1` gave an XC50 of 946 nM.
As to `Cn1nc(-c2cccc(CN[C@@H]3CCc4ccc(O)cc43)c2)c2cnc(NC3CCCC3)nc21`, the XC50 is 736 nM.
The compound `O=C(Nc1cc(Cl)cc(Cl)c1)Nc1ccnc2ccccc12` showed an XC50 of 745 nM.
As for `CN(C)c1ccc(OCCCCCCOc2ccccc2)cc1`, the XC50 amounted to 496 nM.
Then `Cc1cc(Br)c(OCCCON2C(=N)N=C(N)NC2(C)C)c(Br)c1`, with 3.2 nM.
`CC1CN(Cc2ccc(-c3ccc(-c4nc5ccccc5[nH]4)cc3)cc2)CC(C)O1` (configuration not stated) yielded an XC50 of 523 nM.
On to `c1ccc(C2CCN(Cc3ccc(-c4c[nH]c5nc(NC6CCCC6)ncc45)cc3)CC2)cc1`, for which the XC50 is 1010 nM.
Take `Cc1cc(=NN=Cc2ccccc2)c2cc(C(F)(F)F)ccc2[nH]1`: the XC50 was 153 nM.
Consider `C=CCOC(=O)N1CCC(CNCc2ccc(-c3ccc(-c4nc5cc(C(F)(F)F)ccc5[nH]4)cc3)cc2)C1` (configuration not stated), for which the XC50 was 150 nM.
Turning to `CC(C)(C)c1ccc(CNC(=O)c2cc(CNC3CCC(N)CC3)ccc2O)cc1` (configuration not stated), the XC50 is 1030 nM.
Then `COc1c(CN2CCCC2)cccc1-c1cc2c(-c3ccc(C(=O)O)c(C(C)C)c3)ccnc2[nH]1`, with 439 nM.
Under `NOCCCOc1ccc(Cl)cc1` stands 574 nM; under `Cc1ccc(CN2CCCCC(NC(=O)c3cc4ccccc4s3)C2)cc1` (configuration not stated), 900 nM; under `Cc1ccccc1N1CCN(c2ncc(C(=O)NC3CC3)cc2Cl)CC1`, 628 nM.
Then `COc1ccc2nccc([C@@H](O)CN3CCC(NCCOc4ccncc4)CC3)c2c1`, with 690 nM; and `CCCc1cc(Cc2cnc(N)nc2N)cc(CCC)c1OC`, with 893 nM.
The compound `O=S(=O)(NCCN1CCCC1)c1cccc(-c2ccc(CNCc3ccc(F)cc3)cc2)c1` gave an XC50 of 234 nM.
In turn, `Cc1nnsc1C(=O)Nc1ccc(-c2ccc(-c3nc4cccc(C)c4[nH]3)s2)cc1` showed an XC50 of 594 nM.
In turn, `O=C(Nc1ccccc1)N(Cc1cccc(-c2cccc(CNCCc3ccccc3)c2)c1)C1CCN(Cc2ccccc2)CC1` came in with an XC50 of 307 nM.
Under `ON=C1c2cc(OCCN3CCCCC3)c(Cl)cc2-c2cc(Cl)c(OCCN3CCCCC3)cc21` stands 703 nM; under `Nn1c(=O)oc2ccc(Cl)cc2c1=O`, 187 nM.
With `Cc1ncsc1CCN1C(=O)CC2(C1=O)C(=O)N(Cc1ccccc1)c1ccc(Cl)cc12` (configuration not stated), the XC50 came to 984 nM.
Take `Cc1cccc2[nH]c(-c3cc(-c4cccc(Cl)c4)cnc3N)nc12`: the XC50 is 124 nM.
Under `c1ccc2c(c1)CN(Cc1ccsc1)CC1(CCN(Cc3c[nH]c4cnccc34)CC1)O2` stands 1150 nM; under `COc1ccc(-c2nc3c(N)nc(N)nc3nc2-c2ccccc2Cl)cc1.COc1ccc(-c2nc3nc(N)nc(N)c3nc2-c2ccccc2Cl)cc1`, 549 nM; under `CN(C)CCNc1nccc(N2CCc3ncnc(Nc4ccc(OCc5cccc(F)c5)c(Cl)c4)c3C2)n1`, 138 nM.
With `CCCCc1cc(NCc2ccncc2)nc(Nc2ccc(C)cc2)n1`, the XC50 is 794 nM.
In the case of `COc1cc(Nc2nccc(N3CCC(NC(=O)c4cccc(C#N)c4)C3)n2)cc(OC)c1OC` (configuration not stated), the XC50 came out at 992 nM.
Compound `Cc1cccc2nc(-c3ccc(-c4ccc(CNCC5CCCO5)cc4)s3)[nH]c12` (configuration not stated) yielded an XC50 of 739 nM.
With `CC(C)CNCc1ccc(-c2ccccc2CN(C(=O)NCCc2ccccc2)C2CCN(Cc3ccccc3)CC2)cc1`, the XC50 came out at 878 nM.
Take `O=C(Cc1cccc(Cl)c1)Nc1ccc(N2CCC(NCc3ccc4ncccc4c3)CC2)cc1`: the XC50 is 1230 nM.
In turn, `O=C(/C=C/c1ccc(Cl)c(Cl)c1)NC1CCC(CN2CCC(c3c[nH]c4cc(O)ccc34)CC2)CC1` (configuration not stated) displayed an XC50 of 813 nM.
Under `NC1=NC2(CCCCC2)N(Cc2ccc(Cl)c(Cl)c2)C(N)=N1` stands 623 nM; under `O=C(NC(CCCN1CCC(c2ccccc2)CC1)c1ccc(Cl)c(Cl)c1)c1cc(C(F)(F)F)cc(C(F)(F)F)c1` (configuration not stated), 865 nM; under `CCN(CCCN1CCCCC1)c1cc(C)nc(Nc2ccc(OC)cc2)n1`, 621 nM.
Under `COc1ccc(CC(C)NCC(O)c2cccc(C(F)(F)F)c2)cc1` (configuration not stated) stands 1580 nM.
Then `CCCN(Cc1nnc(-c2cccs2)o1)C(=O)CSc1nnnn1-c1ccc(C)c(C)c1`, with 582 nM.
In turn, `Cn1ccc(-c2cccc(Nc3ccnc4cc(-c5nccs5)ccc34)c2)n1` displayed an XC50 of 405 nM.
`CCCCCCCC1CCN(C[C@H](O)c2ccnc3ccc(OC)cc23)CC1` gave an XC50 of 956 nM.
Under `CC(C)(C)c1nn(-c2ccc(Cl)cc2)c2[nH]c(=O)c(CNCc3ccc4c(c3)OCO4)cc12` stands 810 nM; under `CCCCOc1cc2c(cc1OCC)C(C=Cc1ccc(Cl)cc1Cl)=NCC2`, 403 nM.
For `Cc1cccc2nc(-c3cccc(-c4ccc(NC(=O)Cc5ccccn5)cc4)c3)[nH]c12`, the XC50 came out at 793 nM.
Then `c1ccc2[nH]c(-c3ccc(-c4ccc(CNC5CC5)cc4)s3)nc2c1`, with 1050 nM; and `Cc1cc(N[C@@H](CC(C)C)C(=O)NCCOc2ccccc2)nc(NCC2CCCCC2)n1`, with 972 nM; and `COCCn1c(Sc2ccc(C#N)c([N+](=O)[O-])c2)nnc1-c1ccc(N(C)C)cc1`, with 1030 nM.
For `O=C(/C=C/c1ccc2ccccc2c1)NC1CCC(CN2CCC(c3c[nH]c4ccccc34)CC2)CC1` (configuration not stated), the XC50 came to 727 nM.
Under `O=C(NCc1ccc(F)cc1)Nc1ccc(-c2cccc(-c3nc4cc(F)ccc4[nH]3)c2)cc1` stands 1120 nM.
Compound `COc1ccc(-c2cccc(NC(=O)c3cccc(Cl)c3)c2)cc1CN1CCCN(C)CC1` showed an XC50 of 231 nM.
In the case of `Cc1cccc2nc(-c3ccc(-c4ccc(CN5CCN(CCO)CC5)cc4)cc3)[nH]c12`, the XC50 worked out at 599 nM.
Turning to `CCOC(=O)c1cc(Cl)cc(Cl)c1OCCCON1C(=N)N=C(N)NC1(C)C`, the XC50 worked out at 3.2 nM.
`COc1cccc(-c2ccc(C(=O)NC3CCN(Cc4ccc(N(C)C)cc4)CC3)s2)c1` registered an XC50 of 1390 nM.
With `COc1cccc(-c2cc3nc4c(c(NCCCn5ccnc5)n3n2)CCCC4)c1`, the XC50 worked out at 681 nM.
Under `Cc1ccc(Cl)cc1N1CCN(CCCNC(=O)C2CCN(c3nc4ccccc4[nH]3)CC2)CC1` stands 895 nM; under `CCc1ccc(S(=O)(=O)Nc2cccc(CCN3CCC(N4CCCCC4)CC3)c2)cc1`, 898 nM.
Then `CN(C)CCOc1cc(O)c2c(c1)OC(C)(C)C=C2c1cccs1`, with 290 nM; and `O=C(Nc1ccc(CCNC2=NCCN2)cc1)Nc1ccc(CCNC2=NCCN2)cc1`, with 789 nM.
Under `O=C(/C=C/c1c(Cl)cccc1Cl)NC1CCC(CN2CCC(c3c[nH]c4ccncc34)CC2)CC1` (configuration not stated) stands 158 nM.
`CN(C)C(=O)c1ccc(CN(Cc2ccc(OC(C)(C)C)cc2)Cc2ccc3c(c2)OCCO3)cc1` had an XC50 of 829 nM.
Under `OC1(c2ccccc2)CCN(Cc2cccc(-c3c[nH]c4nc(NC5CCCC5)ncc34)c2)C1` (configuration not stated) stands 914 nM; under `O=C(Nc1ccc(Cl)c(Cl)c1)Nc1ccc2c(c1)CCNCC2`, 532 nM; under `C=C[C@H]1CN2CC[C@H]1C[C@H]2[C@H](O)c1cc(-c2ccc(Cl)cc2)nc2ccc(OC)cc12`, 30.3 nM.
Then `CC(C)Nc1cc(C(=O)N[C@@H](Cc2ccccc2)[C@H](O)CNC(C)(C)c2cccc(C(F)(F)F)c2)cc(N2CCCCS2(=O)=O)c1`, with 79.4 nM; and `Cc1cccc2nc(-c3cccc(-c4ccc(NC(=O)C(C)CN5CCOCC5)cc4)c3)[nH]c12` (configuration not stated), with 689 nM; and `Cc1cccc2nc(-c3ccc(-c4ccc(CN5CCCCC5CO)cc4)cc3)[nH]c12` (configuration not stated), with 808 nM.
The compound `O=C(Nc1ccc(N2CCN(c3ncccc3C(F)(F)F)CC2)nc1)c1cccs1` had an XC50 of 1190 nM.
In turn, `CN(C)CCN(C)C(=O)c1cc(-c2ccncc2)c(-c2ccc(Cl)c(O)c2)o1` returned an XC50 of 1050 nM.
In turn, `Cc1cc(N[C@@H](Cc2ccccc2)C(=O)Nc2ccccc2)nc(NCCc2ccccn2)n1` gave an XC50 of 874 nM.
For the compound `CC(=O)Nc1ccc(Nc2cc(C)nc(Nc3ccc(NC(C)=O)cc3)n2)cc1`, the XC50 came out at 894 nM.
Under `CCOC(=O)c1ccc(NC(=O)Nc2ccc(Cn3ncc(N4CCCNCC4)c(Cl)c3=O)cc2)cc1` stands 443 nM.
Then `CC(O)C1CCCCN1C(=O)c1cccc(-c2cccc(-c3nc4ccccc4[nH]3)c2)c1` (configuration not stated), with 534 nM; and `COc1ccc2nccc([C@@H](O)CN3CCC(NCc4nc5c(C#N)cccc5[nH]4)CC3)c2c1`, with 999 nM; and `COc1cc(F)c2ncc(Cl)c([C@H](O)CN3CCC(NCc4cc5c(cn4)OCCO5)CC3)c2c1`, with 95.2 nM.
Under `CC(C)c1ccc2oc(-c3ccc(NC(=O)c4ccc([N+](=O)[O-])o4)cc3)nc2c1` stands 340 nM; under `CC12CCC(=O)N1C(C(=O)Nc1cccc(C(=O)Nc3cccc(C(F)(F)F)c3)c1)CS2` (configuration not stated), 358 nM.
As for `Cc1cc2nc(-c3cc(-c4cccc(NS(C)(=O)=O)c4)cnc3N)[nH]c2cc1C`, the XC50 worked out at 672 nM.
`COc1ccccc1COc1c(C)nc(N)nc1N` displayed an XC50 of 706 nM.
Under `Cc1ccccc1C1CCN(C2CCC(NC(=O)/C=C/c3cccc(Cl)c3)CC2)CC1` (configuration not stated) stands 891 nM; under `NC(=O)c1ccsc1NC(=O)CNC(c1ccccc1)c1ccc(Cl)cc1` (configuration not stated), 262 nM.
Then `Cc1cc2c(cc1C(F)(F)F)N(C(=O)Nc1ccc(OCCN(C)C)c(C(F)(F)F)c1)CC2`, with 905 nM; and `COc1nc2c(CCN3CC[C@@H](NCc4cc(C#N)c5c(c4)CCO5)[C@@H](O)C3)ccnc2cc1F`, with 1030 nM.
Then `CCc1c(CCNCCCCCCNCCc2ccccc2)ccc(OC)c1OC`, with 800 nM.
